Source: patent US12428377B2, “Sodium-hydrogen exchanger 3 inhibitor compounds” (Eli Lilly and Company, priority 2019, dated 2025)
Like-named read-outs stand apart in the source and are kept apart here.

How the values were obtained:
[1] = test system: male Sprague Dawley rats; assay: Phosphate absorption 15 min after radiolabeled phosphate (Example 2, Compound A, combination); type: in vivo, rat; details: Example 2 0.4 mg/kg, plasma 15 min after radiolabeled phosphate, P=0.046 versus vehicle control
Description: Effect of Example 2 in Combination with an NPT2b Inhibitor (Compound A) on Phosphate Absorption and Intestinal Phosphate Retention in Rats
The purpose of this study is to investigate in rats the effect of Example 2, Compound A, and an Example 2/Compound A combination on phosphate absorption 15 min after dosing the compounds and the phosphate retained in the intestine 4.25 h after dosing the compounds. The latter is a measure of the oral phosphate load which is absorbed over an extended period.
Two vehicles are used in this study: 1) 1% HEC and 2) 0.46% poly-1-vinylpyrrolidone-co-vinyl acetate in water (PVP-VA vehicle). The vehicle control group in this study receives a 1:1 combination of the two vehicles.
The Example 2, Compound A and phosphate dosing solutions are prepared similarly as described above, except the doses are 0.4 mg/kg for Example 2 and 10 mg/kg for Compound A and they are prepared at a concentration where they would be dosed in a 5 mL/kg volume. […]
Male Sprague Dawley rats are fasted 4 h and then administered appropriate vehicles, 10 mg/kg Compound A, 0.4 mg/kg Example 2, or a combination of both compounds. […] Radioactivity in plasma is measured by scintillation counting and used to calculate the inhibition of phosphate absorption. […] Statistical significance is determined by ANOVA with a Dunnett's comparison to the Example 2/Compound A combination using JMP 12.1.

[2] = molecular target: T1, SGLT1 (Homo sapiens, UniProt P13866); assay: SGLT1 inhibition (selectivity)
T1 sequence (P13866 1-664): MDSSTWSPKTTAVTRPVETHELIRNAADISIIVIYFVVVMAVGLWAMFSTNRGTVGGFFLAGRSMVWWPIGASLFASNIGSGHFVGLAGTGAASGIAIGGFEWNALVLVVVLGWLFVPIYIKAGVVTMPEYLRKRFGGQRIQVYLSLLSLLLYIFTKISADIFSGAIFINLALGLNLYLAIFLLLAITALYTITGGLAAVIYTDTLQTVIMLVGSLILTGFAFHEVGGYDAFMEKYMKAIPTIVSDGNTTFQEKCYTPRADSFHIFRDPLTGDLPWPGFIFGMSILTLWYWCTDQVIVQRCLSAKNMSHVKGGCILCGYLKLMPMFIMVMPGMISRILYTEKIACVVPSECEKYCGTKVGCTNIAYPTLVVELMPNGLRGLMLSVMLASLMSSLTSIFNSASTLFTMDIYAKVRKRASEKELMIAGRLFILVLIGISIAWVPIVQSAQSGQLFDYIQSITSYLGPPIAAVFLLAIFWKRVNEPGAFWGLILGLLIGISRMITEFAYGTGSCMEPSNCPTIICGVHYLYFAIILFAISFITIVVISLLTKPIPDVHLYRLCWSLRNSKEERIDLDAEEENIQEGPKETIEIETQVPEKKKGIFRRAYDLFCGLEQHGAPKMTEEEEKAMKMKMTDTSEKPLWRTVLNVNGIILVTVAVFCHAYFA

[3] = test system: Male Sprague-Dawley rats; assay: Effect of Example 2 on sodium and phosphate absorption (urinary excretion after oral NaH2PO4 bolus); type: in vivo, rat; details: 4 h urine; for ED50: Rattus norvegicus, oral, NaH2PO4 bolus 690 mg/kg; for Ratio of Urinary-to-Dietary Phosphorus / Ratio of Urinary-to-Dietary Sodium: mean ± SEM
Description: Effect of Example 2 on Sodium and Phosphate Absorption Urinary sodium and phosphate excretion following an oral bolus dose of sodium phosphate is an indirect measure of sodium and phosphate absorption in the intestine. Male Sprague-Dawley rats at an age of about 7 weeks with body weights ranging from 195 to 221 g are randomized into groups based on equal mean body weights. Example 2 at 0.3 mg/mL (final dose 3 mg/kg dosed in 10 mL/kg volume) is formulated by adding 1% HEC to a glass vial containing a pre-weighed amount of compound, and then probe sonicating until it appears as a uniform suspension. […] The subsequent dosing solutions of Example 2 are prepared by serial dilutions with 1% HEC. NaH2PO4 at 34.5 mg/ml (final dose 690 mg/kg dosed in 20 ml/kg volume) is formulated by adding sterile water. On the day of the study, the animals are placed into clean cages without food but with access to water for a 4 h fast before the study. Rats are orally dosed with vehicle or varying doses of Example 2. 15 min later, animals are dosed with sterile water or NaH2PO4, then immediately transferred to metabolic cages. Urine samples are collected for 4 h. Net urine volume is recorded. Urinary sodium, creatinine, and phosphate are assessed using a clinical biochemistry analyzer. Values expressed as the ratio of urinary-to-dietary phosphorus or sodium are calculated and presented as mean±SEM. Curves are fitted with a 4-parameter logistic curve fitting tool GraphPod Prism 6 to calculate the ED50. For the purpose of curve fitting, the dose of Example 2 is artificially set to 0.00001 mg/kg in the software for the vehicle-alone group.

IC50 [2]: 6.6 µM
Structure (SMILES): CN1Cc2c(Cl)cc(Cl)cc2[C@H](c2cccc(S(=O)(=O)NCCOCCOCCN/C(=N\C(N)=O)NCCCCN/C(=N/C(N)=O)NCCOCCOCCNS(=O)(=O)c3cccc([C@@H]4CN(C)Cc5c(Cl)cc(Cl)cc54)c3)c2)C1.Cl.Cl [Example 2, [[4-[[N′-Carbamoyl-N-[2-[2-[2-[[3-[(4S)-6,8-dichloro-2-methyl-3,4-dihydro-1H-isoquinolin-4-yl]phenyl]sulfonylamino]ethoxy]ethoxy]ethyl]carbamimidoyl]amino]butylamino]-[2-[2-[2-[[3-[(4S)-6,8-dichloro-2-methyl-3,4-dihydro-1H-isoquinolin-4-yl]phenyl]sulfonylamino]ethoxy]ethoxy]ethylamino]methylene]urea dihydrochloride]
Inhibition of phosphate absorption [1]: 29%
ED50 ([3]; read-out: ED50 on sodium excretion): 0.058 mg/kg
ED50 ([3]; read-out: ED50 on urinary phosphorus excretion): 0.041 mg/kg
Ratio of Urinary-to-Dietary Phosphorus ([3]; oral 0.001 mg/kg): 0.337 ± 0.017
Ratio of Urinary-to-Dietary Sodium ([3]; oral 0.001 mg/kg): 0.326 ± 0.042
Ratio of Urinary-to-Dietary Phosphorus ([3]; oral 0.003 mg/kg): 0.350 ± 0.023
Ratio of Urinary-to-Dietary Sodium ([3]; oral 0.003 mg/kg): 0.413 ± 0.055
Ratio of Urinary-to-Dietary Phosphorus ([3]; oral 0.01 mg/kg): 0.320 ± 0.042
Ratio of Urinary-to-Dietary Sodium ([3]; oral 0.01 mg/kg): 0.290 ± 0.06
Ratio of Urinary-to-Dietary Phosphorus ([3]; oral 0.03 mg/kg): 0.268 ± 0.04
Ratio of Urinary-to-Dietary Sodium ([3]; oral 0.03 mg/kg): 0.276 ± 0.06
Ratio of Urinary-to-Dietary Phosphorus ([3]; oral 0.1 mg/kg): 0.197 ± 0.045
Ratio of Urinary-to-Dietary Sodium ([3]; oral 0.1 mg/kg): 0.105 ± 0.042
Ratio of Urinary-to-Dietary Phosphorus ([3]; oral 0.3 mg/kg): 0.168 ± 0.027
Ratio of Urinary-to-Dietary Sodium ([3]; oral 0.3 mg/kg): 0.039 ± 0.010
Ratio of Urinary-to-Dietary Phosphorus ([3]; oral 1 mg/kg): 0.191 ± 0.039
Ratio of Urinary-to-Dietary Sodium ([3]; oral 1 mg/kg): 0.051 ± 0.027
Ratio of Urinary-to-Dietary Phosphorus ([3]; oral 3 mg/kg): 0.144 ± 0.009
Ratio of Urinary-to-Dietary Sodium ([3]; oral 3 mg/kg): 0.022 ± 0.009
